Experimental findings from patent publication US20230295109A1, “PYRIDINONE COMPOUNDS FOR THE TREATMENT OF AUTOIMMUNE DISEASE” (F. Hoffmann-La Roche AG, priority 2020, published 2023) are described below.

The assay deals with T1, human TLR8 (Homo sapiens, UniProt Q9NR97).
T1 construct: host or cells: HEK293 (HEK-Blue hTLR8)
T1 sequence (Q9NR97 27-1041): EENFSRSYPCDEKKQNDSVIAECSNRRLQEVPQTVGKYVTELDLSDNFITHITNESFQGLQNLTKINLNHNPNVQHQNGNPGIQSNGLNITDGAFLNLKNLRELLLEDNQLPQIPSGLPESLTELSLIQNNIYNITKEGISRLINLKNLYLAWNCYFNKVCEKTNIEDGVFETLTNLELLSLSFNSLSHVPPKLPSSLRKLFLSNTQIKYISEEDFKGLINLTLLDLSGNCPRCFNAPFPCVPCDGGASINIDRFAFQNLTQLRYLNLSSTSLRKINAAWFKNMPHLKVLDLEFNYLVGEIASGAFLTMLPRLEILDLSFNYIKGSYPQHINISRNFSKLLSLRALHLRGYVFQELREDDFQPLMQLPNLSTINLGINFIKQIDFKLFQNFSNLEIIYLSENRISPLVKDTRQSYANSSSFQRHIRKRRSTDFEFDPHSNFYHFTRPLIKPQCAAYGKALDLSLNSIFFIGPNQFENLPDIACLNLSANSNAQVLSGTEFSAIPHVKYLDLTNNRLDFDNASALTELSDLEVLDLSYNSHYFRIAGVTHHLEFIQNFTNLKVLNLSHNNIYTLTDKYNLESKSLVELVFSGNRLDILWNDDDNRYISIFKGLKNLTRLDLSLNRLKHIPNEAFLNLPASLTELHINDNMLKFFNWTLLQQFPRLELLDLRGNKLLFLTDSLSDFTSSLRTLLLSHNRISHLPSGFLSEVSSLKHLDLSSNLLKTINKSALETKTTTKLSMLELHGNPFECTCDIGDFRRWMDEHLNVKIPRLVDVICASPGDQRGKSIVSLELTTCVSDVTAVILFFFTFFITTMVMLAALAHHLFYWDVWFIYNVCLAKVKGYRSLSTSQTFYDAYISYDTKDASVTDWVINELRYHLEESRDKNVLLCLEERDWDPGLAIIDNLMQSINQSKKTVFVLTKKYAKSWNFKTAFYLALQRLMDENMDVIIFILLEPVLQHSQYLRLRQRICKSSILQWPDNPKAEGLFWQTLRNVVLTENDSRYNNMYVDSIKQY
As to the kind of experiment: HEK293-Blue-hTLR-8 cells assay. The class given is cell-based. The settings on record: HEK293-Blue-hTLR8 cells, R848 stimulation, 20 hrs, SEAP reporter; read-out: HEK/hTLR8 IC50. From the text:
A stable HEK293-Blue-hTLR-8 cell line was purchased from InvivoGen (Cat.#: hkb-htlr8, San Diego, California, USA). These cells were originally designed for studying the stimulation of human TLR8 by monitoring the activation of NF-κB. A SEAP (secreted embryonic alkaline phosphatase) reporter gene was placed under the control of the IFN-β minimal promoter fused to five NF-κB and AP-1-binding sites. The SEAP was induced by activating NF-κB and AP-1 via stimulating HEK-Blue hTLR8 cells with TLR8 ligands. Therefore the reporter expression was declined by TLR8 antagonist under the stimulation of a ligand, such as R848, for incubation of 20 hrs. The cell culture supernatant SEAP reporter activity was determined using QUANTI-Blue™ kit (Cat.#: rep-qb1, Invivogen, San Diego, Ca, USA) at a wavelength of 640 nm, a detection medium that turns purple or blue in the presence of alkaline phosphatase.
HEK293-Blue-hTLR8 cells were incubated at a density of 250,000~450,000 cells/mL in a volume of 170 µL in a 96-well plate in Dulbecco’s Modified Eagle’s medium (DMEM) containing 4.5 g/L glucose, 50 U/mL penicillin, […], […], 2 mM L-glutamine, 10% (v/v) heat-inactivated fetal bovine serum with addition of 20 µL test compound in a serial dilution in the presence of final DMSO at 1% and 10 µL of 60uM R848 in above DMEM, perform incubation under 37° C. in a CO2 incubator for 20 hrs. Then 20 µL of the supernatant from each well was incubated with 180 µL Quanti-blue substrate solution at 37° C. for 2 hrs and the absorbance was read at 620 \~655 nm using a spectrophotometer. The signaling pathway that TLR8 activation leads to downstream NF-κB activation has been widely accepted, and therefore similar reporter assay was modified for evaluating TLR8 antagonist.
Take `Cc1cc(-c2ccc(N3CCC(N4CCNCC4)CC3)nc2C(C)C)cn(C)c1=O` [Example 18, 5-[2-isopropyl-6-(4-piperazin-1-yl-1-piperidyl)-3-pyridyl]-1,3-dimethyl-pyridin-2-one]: the IC50 worked out at 0.8 nM.
With `Cc1cc(-c2ccc(N3CCN(Cc4ccc(N5CCNCC5)cc4)CC3)nc2C(C)C)cn(C)c1=O` [Example 13, 5-[2-isopropyl-6-[4-[(4-piperazin-1-ylphenyl)methyl]piperazin-1-yl]-3-pyridyl]-1,3-dimethyl-pyridin-2-one], the IC50 came to 0.3 nM.
As to `CCc1nc(N2CCN(Cc3cnc(N4CCOC[C@@H](N)C4)nc3)CC2)ccc1-c1cc(C)c(=O)n(C)c1` [Example 4, 5-[6-[4-[[2-[(6S)-6-amino-1,4-oxazepan-4-yl]pyrimidin-5-yl]methyl]piperazin-1-yl]-2-ethyl-3-pyridyl]-1,3-dimethyl-pyridin-2-one], the IC50 was found to be 0.6 nM.
Then `Cc1cc(-c2ccc(N3CCN(Cc4cnc(N5CCNCC5)cn4)CC3)nc2C(C)C)cn(C)c1=O` [Example 8, 5-[2-isopropyl-6-[4-[(5-piperazin-1-ylpyrazin-2-yl)methyl]piperazin-1-yl]-3-pyridyl]-1,3-dimethyl-pyridin-2-one], with 0.3 nM; and `Cc1cc(-c2ccc(N3CCN(Cc4ncc(N5CCNCC5)cn4)CC3)nc2C(C)C)cn(C)c1=O` [Example 12, 5-[2-isopropyl-6-[4-[(5-piperazin-1-ylpyrimidin-2-yl)methyl]piperazin-1-yl]-3-pyridyl]-1,3-dimethyl-pyridin-2-one], with 0.7 nM.
For `Cc1cc(-c2ccc(N3CCN(Cc4ccc(N5CCNCC5)nc4)CC3)nc2C(C)C)cn(C)c1=O` [Example 11, 5-[2-isopropyl-6-[4-[(6-piperazin-1-yl-3-pyridyl)methyl]piperazin-1-yl]-3-pyridyl]-1,3-dimethyl-pyridin-2-one], the IC50 turned out to be 0.3 nM.
As for `CCc1nc(N2CCN(Cc3ccc(N4CC5(CNCCO5)C4)nc3)CC2)ccc1-c1cc(C)c(=O)n(C)c1` [Example 2, 5-[2-ethyl-6-[4-[[6-(5-oxa-2,8-diazaspiro[3.5]nonan-2-yl)-3 pyridyl]methyl]piperazin-1-yl]-3-pyridyl]-1,3-dimethyl-pyridin-2-one], the IC50 came to 0.3 nM.
Take `CCc1nc(N2CCN3CCN(c4cnc(N5CC6(CNCCO6)C5)nc4)CC3C2)ccc1-c1cc(C)c(=O)n(C)c1` (stereo not shown) [Example 19, 5-[2-ethyl-6-[2-[2-(5-oxa-2,8-diazaspiro[3.5]nonan-2-yl)pyrimidin-5-yl]-3,4,6,7,9,9a-hexahydro-1H-pyrazino[1,2-a]pyrazin-8-yl]-3-pyridyl]-1,3-dimethyl-pyridin-2-one]: the IC50 is 5.9 nM.
As to `Cc1cc(-c2ccc(N3CCN(Cc4cnc(N5CC6(CNCCO6)C5)nc4)CC3)nc2C(C)C)cn(C)c1=O` [Example 6, 5-[2-isopropyl-6-[4-[[2-(5-oxa-2,8-diazaspiro[3.5]nonan-2-yl)pyrimidin-5-yl]methyl]piperazin-1-yl]-3-pyridyl]-1,3-dimethyl-pyridin-2-one], the IC50 was 0.3 nM.
Take `Cc1cc(-c2ccc(N3CCN(Cc4ccc(N5CCNCC5)cn4)CC3)nc2C(C)C)cn(C)c1=O` [Example 7, 5-[2-isopropyl-6-[4-[(5-piperazin-1-yl-2-pyridyl)methyl]piperazin-1-yl]-3-pyridyl]-1,3-dimethyl-pyridin-2-one]: the IC50 was 0.3 nM.
On to `Cc1cc(-c2ccc(N3CCN(Cc4cnc(N5CC(C)(N)C5)nc4)CC3)nc2C(C)C)cn(C)c1=O` [Example 10, 5-[6-[4-[[2-(3-amino-3-methyl-azetidin-1-yl)pyrimidin-5-yl]methyl]piperazin-1-yl]-2-isopropyl-3-pyridyl]-1,3-dimethyl-pyridin-2-one], for which the IC50 was found to be 0.3 nM.
Take `CCc1nc(N2CCN(Cc3cnc(N4CC5(CNCCO5)C4)nc3)CC2)ccc1-c1cc(C)c(=O)n(C)c1` [Example 1, 5-[2-ethyl-6-[4-[[2-(5-oxa-2,8-diazaspiro[3.5]nonan-2-yl)pyrimidin-5-yl]methyl]piperazin-1-yl]-3-pyridyl]-1,3-dimethyl-pyridin-2-one]: the IC50 was found to be 0.7 nM.
In the case of `Cc1cc(-c2ccc(N3CCN(Cc4ccc(N5CCNCC5)cc4)CC3)nc2C(F)F)cn(C)c1=O` [Example 17, 5-[2-(difluoromethyl)-6-[4-[(4-piperazin-1-ylphenyl)methyl]piperazin-1-yl]-3-pyridyl]-1,3-dimethyl-pyridin-2-one], the IC50 was 0.3 nM.
The result for `Cc1cc(-c2ccc(N3CCN4CCN(c5ccc(N6CCNCC6)nc5)CC4C3)nc2C(C)C)cn(C)c1=O` (stereo not shown) [Example 16, 5-[2-isopropyl-6-[8-(6-piperazin-1-yl-3-pyridyl)-3,4,6,7,9,9a-hexahydro-1H-pyrazino[1,2-a]pyrazin-2-yl]-3-pyridyl]-1,3-dimethyl-pyridin-2-one] reads 2 nM; that for `CCc1nc(N2CCN(Cc3cnc(N4CC(C)(N)C4)nc3)CC2)ccc1-c1cc(C)c(=O)n(C)c1` [Example 3, 5-[6-[4-[[2-(3-amino-3-methyl-azetidin-1-yl)pyrimidin-5-yl]methyl]piperazin-1-yl]-2-ethyl-3-pyridyl]-1,3-dimethyl-pyridin-2-one], 0.3 nM; that for `CCc1nc(N2CCN(Cc3ccc(N4CCNCC4)cc3)CC2)ccc1-c1cc(C)c(=O)n(C)c1` [Example 5, 5-[2-ethyl-6-[4-[(4-piperazin-1-ylphenyl)methyl]piperazin-1-yl]-3-pyridyl]-1,3-dimethyl-pyridin-2-one], 0.3 nM.
For the compound `Cc1cc(-c2ccc(N3CCN(Cc4cnc(N5CCNCC5)nc4)CC3)nc2C(C)C)cn(C)c1=O` [Example 9, 5-[2-isopropyl-6-[4-[(2-piperazin-1-ylpyrimidin-5-yl)methyl]piperazin-1-yl]-3-pyridyl]-1,3-dimethyl-pyridin-2-one], the IC50 is 0.3 nM.
Turning to `Cc1cc(-c2ccc(N3CCN(c4ccc5c(n4)CCNC5)CC3)nc2C(C)C)cn(C)c1=O` [Example 15, 5-[2-isopropyl-6-[4-(5,6,7,8-tetrahydro-1,6-naphthyridin-2-yl)piperazin-1-yl]-3-pyridyl]-1,3-dimethyl-pyridin-2-one], the IC50 was determined as 2 nM.
For `Cc1cc(-c2ccc(N3CCN(Cc4cccc(N5CCNCC5)c4)CC3)nc2C(C)C)cn(C)c1=O` [Example 14, 5-[2-isopropyl-6-[4-[(3-piperazin-1-ylphenyl)methyl]piperazin-1-yl]-3-pyridyl]-1,3-dimethyl-pyridin-2-one], the IC50 is 0.3 nM.
